Results on 16 compounds are retold here after ChEMBL document CHEMBL4190212, “Synthesis, antiprotozoal activity, and chemoinformatic analysis of 2-(methylthio)-1H-benzimidazole-5-carboxamide derivatives: Identification of new selective giardicidal and trichomonicidal compounds” (Eur J Med Chem, 2017).

The structures appear in SMILES notation.

In general, IC50 refers to the concentration needed to halve the response being measured. Low readings indicate greater potency in that assay, high ones weaker potency in that assay.

Experiment [1] has as its system Giardia intestinalis. Kind of experiment: Antiparasitic activity against trophozoite stage of Giardia intestinalis IMSS:0989:1 after 48 hrs. It counts as functional, organism-based. The note with it: Giardia duodenalis, IMSS:0989:1, 48 h.
The next experiment concerns Trichomonas vaginalis. Kind of experiment: Antiparasitic activity against trophozoite stage of Trichomonas vaginalis CNCD 147 after 48 hrs. The class given is functional, organism-based. The note with it: CNCD 147, 48 h.
For experiment [2], the system named is Entamoeba histolytica. Kind of experiment: Antiparasitic activity against trophozoite stage of Entamoeba histolytica HM-1:IMSS after 48 hrs. The class given is functional, organism-based.
Experiment [3] concerns Entamoeba histolytica. Kind of experiment: Antiparasitic activity against trophozoite stage of Entamoeba histolytica HM-1:IMSS after 48 hrs by haemocytometric method. The class given is functional, organism-based.
Experiment [4] has as its system Entamoeba histolytica. Kind of experiment: Potency index, ratio of metronidazole IC50 to test compound IC50 for trophozoite stage of Entamoeba histolytica HM-1:IMSS. It counts as functional.
Experiment [5] has as its system Giardia intestinalis. Kind of experiment: Potency index, ratio of metronidazole IC50 to test compound IC50 for trophozoite stage of Giardia intestinalis IMSS:0989:1. The class given is functional, Giardia duodenalis.

For the compound `CSc1nc2cc(C(=O)Nc3cccc(Cl)n3)c(Cl)cc2n1C`, the IC50 with Giardia intestinalis [1] stood at 12.2 nM; in the experiment on Trichomonas vaginalis it was 368 nM; in the experiment on Entamoeba histolytica [2], 40.8 nM.

On to `CSc1nc2cc(C(=O)N/N=C/c3ccc([N+](=O)[O-])o3)c(Cl)cc2n1C`, for which the IC50 with Giardia intestinalis [1] worked out at 29.2 nM; in the experiment on Trichomonas vaginalis it was 13.2 nM; with Entamoeba histolytica [2], 26.6 nM.

In the case of `CSc1nc2cc(C(=O)NNC(=O)OC(C)(C)C)c(Cl)cc2n1C`, the IC50 was found to be 56.6 nM in the experiment with Giardia intestinalis [1], 28.3 nM with Trichomonas vaginalis and 48.5 nM in the experiment with Entamoeba histolytica [2].

In the experiment with Entamoeba histolytica [3], `FC(F)(F)c1nc2cc(Br)c(Br)cc2[nH]1` showed an IC50 of 437 nM.

On to `CSc1nc2cc(C(=O)Nc3ccc([N+](=O)[O-])cn3)c(Cl)cc2n1C`, for which the IC50 with Giardia intestinalis [1] is 7.9 nM; with Trichomonas vaginalis, 41 nM; in the experiment with Entamoeba histolytica [2] it was 9.2 nM. Further, the “Ratio IC50” value in the experiment on Entamoeba histolytica [4] was 41; in the experiment with Giardia intestinalis [5], 155.

For `CSc1nc2cc(C(=O)Nc3ccccc3)c(Cl)cc2[nH]1`, the results for the IC50 in the experiment on Giardia intestinalis [1], in the experiment on Trichomonas vaginalis and with Entamoeba histolytica [2] were 72.5 nM, 120 nM and 52 nM, respectively.

`CSc1nc2cc(C(=O)Nc3cccc(Cl)c3)c(Cl)cc2[nH]1`: the IC50 came out at 1110 nM with Giardia intestinalis [1], 162 nM with Trichomonas vaginalis and 51 nM with Entamoeba histolytica [2].

With `CSc1nc2cc(C(=O)Nc3cccc(C)n3)c(Cl)cc2[nH]1`, the concentration for half-maximal inhibition (IC50) in the experiment with Giardia intestinalis [1] turned out to be 135 nM; with Trichomonas vaginalis, 111 nM; with Entamoeba histolytica [2] it was 81.3 nM.

As for `CSc1nc2cc(C(=O)Nc3ccccn3)c(Cl)cc2[nH]1`, the IC50 came to 77 nM in the experiment on Giardia intestinalis [1], 67.6 nM with Trichomonas vaginalis and 44 nM in the experiment with Entamoeba histolytica [2].

Turning to `FC(F)(F)c1nc2c(Br)c(Br)c(Br)cc2[nH]1`, 13800 nM corresponded to half-maximal inhibition in the experiment on Entamoeba histolytica [3] (IC50).

As to `CSc1nc2cc(C(=O)Nc3cccc(C)n3)c(Cl)cc2n1C`, the values for the IC50 with Giardia intestinalis [1], in the experiment with Trichomonas vaginalis and in the experiment on Entamoeba histolytica [2] were 15.8 nM, 28.8 nM and 41.8 nM, respectively.

In the experiment on Entamoeba histolytica [3], `O=[N+]([O-])c1cc2nc(C(F)(F)F)[nH]c2cc1[N+](=O)[O-]` gave an IC50 of 1550 nM.

Compound `FC(F)(F)C(F)(F)c1nc2c(Br)c(Br)c(Br)c(Br)c2[nH]1` had an IC50 in the experiment with Entamoeba histolytica [3] of 229 nM.

For the compound `CSc1nc2cc(C(=O)Nc3cccc(Cl)n3)c(Cl)cc2[nH]1`, the IC50 turned out to be 454 nM in the experiment with Giardia intestinalis [1], 128 nM in the experiment with Trichomonas vaginalis and 36.9 nM in the experiment on Entamoeba histolytica [2].

With `CSc1nc2cc(C(=O)Nc3ccccn3)c(Cl)cc2n1C`, the half-maximal inhibitory concentration (IC50) is 346 nM in the experiment with Giardia intestinalis [1], 12 nM in the experiment with Trichomonas vaginalis and 34.5 nM in the experiment with Entamoeba histolytica [2].

`CSc1nc2cc(C(=O)Nc3cccc(C)c3)c(Cl)cc2[nH]1`: the IC50 in the experiment with Giardia intestinalis [1] was 250 nM; in the experiment with Trichomonas vaginalis, 515 nM; with Entamoeba histolytica [2] it was 120 nM.
